# From US20230146455A1, “TREATMENT OF INFLAMMATORY DISEASES WITH PEPTIDES AND PHARMACEUTICAL COMPOSITIONS” (Yuyu Pharma, Inc., priority 2020, published 2023)
# Where “and” joins values, the source holds several entries; their conditions need not be identical. Equal entries are not always repeated. Where a SMILES comes first, the peptide text is derived from it. [ ]: non-standard residue; d: D form. Hyp = O=C(O)[C@@H]1C[C@@H](O)CN1
# Tested on: TIMP-1
# Assay: Example 9 Luminex, LPS hPBMCs: TIMP-1
# Type: cell-based, human
# Details: PBMC + LPS(5 ug/ml)
# Protocol: Treatment Human PBMCs were pretreated with YY-101, YDE-011 and YDE-043 or reference compound; Xiidra® at various concentration (ranging from 1 nM to 100 uM) for 2 h before stimulation. An equal volume of 0.5% DMSO was used as a vehicle control. Then, the cells were treated with LPS at 5 ug/ml. The supernatants from treated cells were harvested at 24 h and placed in a 96 well for Luminex cytokine & chemokine profiling using a Luminex 200 multiplex assay (Luminex; R&D system, USA).
# The main study arm with triplicate wells per group in a 24-well plate: • 1. Blank • 2. PBMC: 0.5% DMSO • 3. PBMC+LPS (5 ug/ml) • 4. PBMC+YY-101 100 uM • 5. PBMC+YY-101 10 uM • 6. PBMC+YY-101 1 uM • 7. PBMC+YY-101 0.1 uM • 8. PBMC+YY-101 0.01 uM • 9. PBMC+LPS (5 ug/ml)+Xiidra®100 uM • 10. PBMC+LPS (5 ug/ml)+Xiidra® 10 uM • 11. PBMC+LPS (5 ug/ml)+Xiidra® 1 uM • 12. PBMC+LPS (5 ug/ml)+Xiidra®0.1 uM • 13. PBMC+LPS (5 ug/ml)+Xiidra®0.01 uM • 14. PBMC+LPS (5 ug/ml)+Xiidra®0.001 uM • 15. PBMC+LPS (5 ug/ml)+YY-101 100 uM • 16. PBMC+LPS (5 ug/ml)+YY-101 10 uM • 17. PBMC+LPS (5 ug/ml)+YY-101 1 uM • 18. PBMC+LPS (5 ug/ml)+YY-101 0.1 uM • 19. PBMC+LPS (5 ug/ml)+YY-101 0.01 uM • 20. PBMC+LPS (5 ug/ml)+YY-101 0.001 uM • 21. PBMC+LPS (5 ug/ml)+YDE-011 100 uM • 22. PBMC+LPS (5 ug/ml)+YDE-011 10 uM • 23. PBMC+LPS (5 ug/ml)+YDE-011 1 uM • 24. PBMC+LPS (5 ug/ml)+YDE-011 0.1 uM • 25. PBMC+LPS (5 ug/ml)+YDE-011 0.01 uM • 26. PBMC+LPS (5 ug/ml)+YDE-011 0.001 uM • 27. PBMC+LPS (5 ug/ml)+YDE-043 100 uM • 28. PBMC+LPS (5 ug/ml)+YDE-043 10 uM • 29. PBMC+LPS (5 ug/ml)+YDE-043 1 uM • 30. PBMC+LPS (5 ug/ml)+YDE-043 0.1 uM • 31. PBMC+LPS (5 ug/ml)+YDE-043 0.01 uM • 32. PBMC+LPS (5 ug/ml)+YDE-043 0.001 uM
# Multiplex assay was used to measure 30 cytokines and chemokines. The 1:2, 1:10 and 1:200 diluted cell supernatant and serial dilution of the standard were dispensed into a 96 well plate at 50 ul/well. Then, the pre-mixed cocktail of antibody-coated magnetic beads was dispensed at 50 ul/well and incubated at room temperature for 2 h in a horizontal orbital microplate shaker at 800±500 rpm. The beads were washed using a magnetic device to prevent loss. The biotin-antibody was dispensed in 50 ul of each well and incubated at room temperature for 1 h in a shaker at 800±500 rpm. After washing, streptavidin-PE was added at 50 ul/well and incubated at room temperature for 30 min in a shaker under the same conditions. Finally, after washing, wash buffer (100 ul/well) was added to the plate and incubated in a shaker for 2 min. The Luminex™ 200 setting were set according to the manufacturer's protocol. The data was calculated with a standard five-parameter logistic nonlinear regression analysis of the data (xPonent software 4.2, USA). The levels of cytokine/chemokine are normalized to the live cell counts (1×10^5 cells/mL) and presented as concentrations per mL (pg/mL or ng/mL).
# [1] = test article 0.001 uM, single replicates
# [2] = test article 0.01 uM, single replicates
# [3] = test article 0.1 uM, single replicates
# [4] = test article 1 uM, single replicates
# [5] = test article 10 uM, single replicates
# [6] = test article 100 uM, single replicates
smiles,measurement,setting,value
CC(C)C[C@H](NC(=O)[C@H](CCC(N)=O)NC(=O)CNC(=O)[C@@H]1C[C@@H](O)CN1)C(=O)NCC(=O)O [YDE-043] (H-[Hyp]GQLG-OH; N-terminus and C-terminus assumed),TIMP-1 Concentration,"test article 0.001 uM, Mean",2001.5 pg/mL
same,TIMP-1 MFI,"test article 0.001 uM, Mean",1096.8
same,TIMP-1 conc/live cell,"test article 0.001 uM, Mean",406.7 pg/10^5
same,TIMP-1 Concentration,[1],1887.3 pg/mL and 2046.6 pg/mL and 2070.5 pg/mL
same,TIMP-1 MFI,[1],1014.0 and 1129.5 and 1147.0
same,TIMP-1 conc/live cell,[1],428.9 pg/10^5 and 341.1 pg/10^5 and 450.1 pg/10^5
same,TIMP-1 Concentration,"test article 0.01 uM, Mean",1986.7 pg/mL
same,TIMP-1 MFI,"test article 0.01 uM, Mean",1085.8
same,TIMP-1 conc/live cell,"test article 0.01 uM, Mean",380.0 pg/10^5
same,TIMP-1 Concentration,[2],2007.5 pg/mL and 1991.7 pg/mL and 1960.7 pg/mL
same,TIMP-1 MFI,[2],1101.0 and 1089.5 and 1067.0
same,TIMP-1 conc/live cell,[2],446.1 pg/10^5 and 301.8 pg/10^5 and 392.1 pg/10^5
same,TIMP-1 Concentration,"test article 0.1 uM, Mean",1829.5 pg/mL
same,TIMP-1 MFI,"test article 0.1 uM, Mean",972.8
same,TIMP-1 conc/live cell,"test article 0.1 uM, Mean",339.9 pg/10^5
same,TIMP-1 Concentration,[3],1850.4 pg/mL and 1718.3 pg/mL and 1919.9 pg/mL
same,TIMP-1 MFI,[3],987.5 and 893.5 and 1037.5
same,TIMP-1 conc/live cell,[3],370.1 pg/10^5 and 306.8 pg/10^5 and 342.8 pg/10^5
same,TIMP-1 Concentration,"test article 1 uM, Mean",1838.3 pg/mL
same,TIMP-1 MFI,"test article 1 uM, Mean",979.0
same,TIMP-1 conc/live cell,"test article 1 uM, Mean",348.3 pg/10^5
same,TIMP-1 Concentration,[4],1928.2 pg/mL and 1809.9 pg/mL and 1776.9 pg/mL
same,TIMP-1 MFI,[4],1043.5 and 958.5 and 935.0
same,TIMP-1 conc/live cell,[4],332.5 pg/10^5 and 377.1 pg/10^5 and 335.3 pg/10^5
same,TIMP-1 Concentration,"test article 10 uM, Mean",1844.9 pg/mL
same,TIMP-1 MFI,"test article 10 uM, Mean",983.7
same,TIMP-1 conc/live cell,"test article 10 uM, Mean",342.1 pg/10^5
same,TIMP-1 Concentration,[5],1853.9 pg/mL and 1912.3 pg/mL and 1768.4 pg/mL
same,TIMP-1 MFI,[5],990.0 and 1032.0 and 929.0
same,TIMP-1 conc/live cell,[5],356.5 pg/10^5 and 354.1 pg/10^5 and 315.8 pg/10^5
same,TIMP-1 Concentration,"test article 100 uM, Mean",2156.3 pg/mL
same,TIMP-1 MFI,"test article 100 uM, Mean",1210.3
same,TIMP-1 conc/live cell,"test article 100 uM, Mean",342.6 pg/10^5
same,TIMP-1 Concentration,[6],2247.5 pg/mL and 2065.1 pg/mL
same,TIMP-1 MFI,[6],1277.5 and 1143.0
same,TIMP-1 conc/live cell,[6],362.5 pg/10^5 and 322.7 pg/10^5
